Experimental findings from patent US9504255B2, “Physical antimicrobial method” (priority 2012, dated 2016) are described below.

One assay deals with Escherichia coli. The experiment in a line: Drug-resistance experiment on pathogens isolated from the Department of Burns (NCCLS 1997). It is filed as cell-based. To be noted: clinical isolates.
The subject of another assay is Enterobacter cloacae. The assay is described as above. To be noted: clinical isolates. It is filed as cell-based.
For a further assay, the system named is aerogenes. The description is as above. It is filed as cell-based, Enterobacter aerogenes. To be noted: clinical isolates.
A further assay concerns Pseudomonas aeruginosa. The assay is described as above. It is filed as cell-based. The conditions noted are these: clinical isolates.
The test system of the next assay is Acinetobacter. The assay is described as above. It is filed as cell-based. The conditions noted are these: clinical isolates.
Assay [1] relates to patients clinically diagnosed with impetigo. The assay is described as follows: Experiment of treatment of impetigo. It is filed as in vivo, human. To be noted: to the affected area 2 times a day, for 7 days. On the procedure: 1652 patients clinically diagnosed with impetigo by the Department of Dermatology in the hospital were chosen and randomly divided into experimental group (n=1032) and control group (n=620). The experimental group was treated with the antimicrobial composition of the invention to the affected area, and the control group was treated with mupirocin, 2 times a day, for 7 days.

The subject of the next assay is MSSA. The assay is described as follows: Drug-resistance experiment on pathogens isolated from the Department of Burns (NCCLS 1997). It is filed as cell-based, Staphylococcus aureus. To be noted: clinical isolates.

In the case of `CC1(C)S[C@@H]2[C@H](NC(=O)[C@H](N)c3ccccc3)C(=O)N2[C@H]1C(=O)O` [ampicillin], in the assay with Escherichia coli, the “resistance rate of Escherichia coli” value was 80.1%.
On to `Cc1nnc(SCC2=C(C(=O)O)N3C(=O)[C@@H](NC(=O)Cn4cnnn4)[C@H]3SC2)s1` [cefazolin], for which the “resistance rate of Escherichia coli” value in the assay with Escherichia coli stood at 40.0%. The “resistance rate of Enterobacter cloacae” value in the assay with Enterobacter cloacae is reported as 89.3%. Besides, the “resistance rate of aerogenes” value in the assay with aerogenes stood at 79.3%.
With `CC(C)(O/N=C(\C(=O)N[C@@H]1C(=O)N2C(C(=O)[O-])=C(C[n+]3ccccc3)CS[C@H]12)c1csc(N)n1)C(=O)O` [ceftazidime], the “resistance rate of Pseudomonas aeruginosa” value with Pseudomonas aeruginosa came to 21.7%. For the same compound, the “resistance rate of Acinetobacter” value in the assay with Acinetobacter worked out at 21.2%.
As for `C/C(=C\C(=O)OCCCCCCCCC(=O)O)C[C@@H]1OC[C@H](C[C@@H]2O[C@H]2[C@@H](C)[C@H](C)O)[C@@H](O)[C@H]1O` [mupirocin], the effective rate in assay [1] was 85%.
As for `CCN1CCN(C(=O)N[C@@H](C(=O)N[C@@H]2C(=O)N3[C@@H]2SC(C)(C)[C@@H]3C(=O)O)c2ccccc2)C(=O)C1=O` [piperacillin], in the assay with Acinetobacter, the “resistance rate of Acinetobacter” value was determined as 93.3%.
Consider gentamicin, for which the “resistance rate of Pseudomonas aeruginosa” value with Pseudomonas aeruginosa was 35.3%. In addition, the “resistance rate of Escherichia coli” value in the assay with Escherichia coli was found to be 40.9%. The “resistance rate of Enterobacter cloacae” value with Enterobacter cloacae amounted to 28.1%. Also, the “resistance rate of Acinetobacter” value in the assay with Acinetobacter stood at 18.9%. In the assay on aerogenes, the “resistance rate of aerogenes” value is 8.2%.
As to penicillin, the “resistance rate of MSSA” value with MSSA is 87.0%.
For piperazine amoxicillin, the “resistance rate of Pseudomonas aeruginosa” value in the assay on Pseudomonas aeruginosa turned out to be 34.1%.
